Drawing on patent US20250064941A1, “SIGLEC LIGANDS, CONJUGATES, AND METHODS OF USE THEREOF” (Osprey Biopharmaceuticals, Inc., priority 2023, published 2025), this text covers Kd for twelve compounds.

The target of test [1] is T1, mouse Siglec-2-Fc-Avi (CD22) (Mus musculus, UniProt P35329).
T1 construct: made in house
T1 sequence (P35329 22-708 limits assumed): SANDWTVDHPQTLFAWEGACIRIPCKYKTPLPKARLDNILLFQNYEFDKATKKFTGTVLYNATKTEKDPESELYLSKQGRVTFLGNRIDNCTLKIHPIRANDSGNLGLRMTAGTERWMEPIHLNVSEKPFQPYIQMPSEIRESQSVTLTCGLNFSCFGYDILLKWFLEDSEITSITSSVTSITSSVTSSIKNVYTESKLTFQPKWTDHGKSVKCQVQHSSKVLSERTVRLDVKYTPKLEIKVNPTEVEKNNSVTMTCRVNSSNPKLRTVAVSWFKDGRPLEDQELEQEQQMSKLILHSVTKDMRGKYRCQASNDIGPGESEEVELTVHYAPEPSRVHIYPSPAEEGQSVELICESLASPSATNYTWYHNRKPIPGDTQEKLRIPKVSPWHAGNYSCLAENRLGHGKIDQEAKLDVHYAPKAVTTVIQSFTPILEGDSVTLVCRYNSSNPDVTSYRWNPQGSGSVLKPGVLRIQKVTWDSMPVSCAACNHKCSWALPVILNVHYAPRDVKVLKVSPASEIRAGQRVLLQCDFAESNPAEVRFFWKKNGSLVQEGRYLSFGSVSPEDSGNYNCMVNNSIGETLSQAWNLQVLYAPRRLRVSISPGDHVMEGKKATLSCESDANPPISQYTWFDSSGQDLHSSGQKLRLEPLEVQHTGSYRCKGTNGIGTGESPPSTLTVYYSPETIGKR
In words: SPR binding affinity to mouse CD22. Particulars: steady-state analysis. The gist of the method: (§1)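 SialoExo pretreatment, 4 h 37° C.; biotinylated CD22 on SA chip, Biacore 8K. Buffer 10 mM HEPES, 150 mM NaCl, 0.05% Tween-20, pH 7.5, 1% DMSO. Dissociation 120 s; solvent-corrected; steady-state KD.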

Test [2] concerns the target T2, human Siglec-2/CD22 protein (Homo sapiens, UniProt P20273).
T2 construct: purchased Acro Biosystems SI2-H82E3
T2 sequence (P20273 20-847): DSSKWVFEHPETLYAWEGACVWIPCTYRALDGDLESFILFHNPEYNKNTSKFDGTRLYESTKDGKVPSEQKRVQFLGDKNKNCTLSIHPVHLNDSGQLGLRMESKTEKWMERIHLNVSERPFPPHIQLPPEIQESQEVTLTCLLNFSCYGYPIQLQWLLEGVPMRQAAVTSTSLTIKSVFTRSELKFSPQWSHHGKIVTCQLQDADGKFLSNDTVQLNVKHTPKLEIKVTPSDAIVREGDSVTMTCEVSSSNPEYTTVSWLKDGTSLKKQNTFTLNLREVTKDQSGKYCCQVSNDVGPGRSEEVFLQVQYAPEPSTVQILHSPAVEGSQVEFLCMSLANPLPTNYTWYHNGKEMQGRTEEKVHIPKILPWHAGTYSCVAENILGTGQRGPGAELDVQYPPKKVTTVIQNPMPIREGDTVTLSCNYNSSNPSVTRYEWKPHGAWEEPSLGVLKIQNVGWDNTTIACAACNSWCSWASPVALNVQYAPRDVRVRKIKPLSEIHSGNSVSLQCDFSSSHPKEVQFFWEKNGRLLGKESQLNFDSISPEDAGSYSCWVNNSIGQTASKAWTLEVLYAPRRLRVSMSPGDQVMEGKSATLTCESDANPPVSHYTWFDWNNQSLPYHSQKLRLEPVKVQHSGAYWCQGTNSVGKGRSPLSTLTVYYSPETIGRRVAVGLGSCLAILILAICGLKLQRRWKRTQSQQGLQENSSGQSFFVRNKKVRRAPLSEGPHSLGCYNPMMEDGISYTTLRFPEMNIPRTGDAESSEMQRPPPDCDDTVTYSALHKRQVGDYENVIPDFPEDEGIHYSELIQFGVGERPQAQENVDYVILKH
As to the kind of experiment: SPR binding affinity to human CD22. The following applies: steady-state analysis. A digest of the protocol:
as §1
Background: Surface plasmon resonance follows binding to a sensor surface in real time, without labels.

A further test has as its target cynomolgus Siglec-2/CD22 (Macaca fascicularis, UniProt A0A2K5WCZ6). As to the kind of experiment: biochemical. The following applies: SPR, steady-state analysis; read-out: Affinity cyno CD22. It counts as binding. A digest of the protocol:
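Compound binding measured by steady-state SPR analysis, 120 s dissociation, in HEPES-NaCl-Tween buffer pH 7.5 containing 1% DMSO, DMSO solvent-corrected. Surface: cyno CD22, sialic acids first stripped by SialoExo for 4 h at 37° C., then amine-coupled onto CM5.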

Structures are written as SMILES.

Chain of cynomolgus Siglec-2/CD22 (A0A2K5WCZ6 entry or part of it): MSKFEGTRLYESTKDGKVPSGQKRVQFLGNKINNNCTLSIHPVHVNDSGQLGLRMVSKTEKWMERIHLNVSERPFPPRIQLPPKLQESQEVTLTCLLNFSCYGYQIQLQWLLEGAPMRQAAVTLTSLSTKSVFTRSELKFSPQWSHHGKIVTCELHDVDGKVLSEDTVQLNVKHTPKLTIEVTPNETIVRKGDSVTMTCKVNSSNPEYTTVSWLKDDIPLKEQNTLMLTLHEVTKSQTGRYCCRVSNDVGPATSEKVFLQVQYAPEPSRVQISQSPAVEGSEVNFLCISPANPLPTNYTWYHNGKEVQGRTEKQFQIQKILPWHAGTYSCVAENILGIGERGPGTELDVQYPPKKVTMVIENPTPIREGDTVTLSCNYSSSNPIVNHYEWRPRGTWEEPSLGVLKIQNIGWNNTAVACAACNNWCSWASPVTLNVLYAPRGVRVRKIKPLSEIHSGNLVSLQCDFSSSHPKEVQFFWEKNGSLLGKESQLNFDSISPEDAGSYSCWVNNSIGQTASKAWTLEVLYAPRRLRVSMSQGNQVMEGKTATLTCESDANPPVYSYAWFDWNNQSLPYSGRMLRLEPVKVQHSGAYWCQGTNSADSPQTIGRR

For the compound `C#CCOCCOCCO[C@]1(C(=O)O)C[C@H](O)[C@@H](NC(=O)CO)[C@H]([C@H](O)[C@H](O)CNC(=O)c2cccc(Cl)c2)O1` [Compound 201, (2R,4S,5R,6R)-6-((1R,2R)-3-(3-chlorobenzamido)-1,2-dihydroxypropyl)-4-hydroxy-5-(2-hydroxyacetamido)-2-(2-(2-(prop-2-yn-1-yloxy)ethoxy)ethoxy)tetrahydro-2H-pyran-2-carboxylic acid], the Kd (in test [1]; in test [2]; at cynomolgus Siglec-2/CD22) was over 10000 nM each time.

Turning to `C#CCCOc1ccc(CO[C@]2(C(=O)O)C[C@H](O)[C@@H](NC(=O)CO)[C@H]([C@H](O)[C@H](O)CNC(=O)Cc3cccc(Cl)c3)O2)cc1` [Compound 123, (2R,4S,5R,6R)-2-((4-(but-3-yn-1-yloxy)benzyl)oxy)-6-((1R,2R)-3-(2-(3-chlorophenyl)acetamido)-1,2-dihydroxypropyl)-4-hydroxy-5-(2-hydroxyacetamido)tetrahydro-2H-pyran-2-carboxylic acid], the Kd in test [1] is 1000 to 10000 nM; in test [2], under 1000 nM; on cynomolgus Siglec-2/CD22, under 1000 nM.

For the compound `C#CCCOc1ccc(CO[C@]2(C(=O)O)C[C@H](O)[C@@H](NC(C)=O)[C@H]([C@H](O)[C@H](O)CNC(=O)c3cccc(Oc4ccccc4)c3)O2)cc1` [Compound 22, (2R,4S,5R,6R)-5-acetamido-2-((4-(but-3-yn-1-yloxy)benzyl)oxy)-6-((1R,2R)-1,2-dihydroxy-3-(3-phenoxybenzamido)propyl)-4-hydroxytetrahydro-2H-pyran-2-carboxylic acid], the results for the Kd (in test [1]; in test [2]; at cynomolgus Siglec-2/CD22) were over 10000 nM, under 1000 nM and 1000 to 10000 nM, respectively.

Take `C#CCOCCCCCCO[C@]1(C(=O)O)C[C@H](O)[C@@H](NC(=O)CO)[C@H]([C@H](O)[C@H](O)CNC(=O)Cc2ccc(C(C)C)cc2)O1` [Cpd. 159, (2R,4S,5R,6R)-6-((1R,2R)-1,2-dihydroxy-3-(2-(4-isopropylphenyl)acetamido)propyl)-4-hydroxy-5-(2-hydroxyacetamido)-2-((6-(prop-2-yn-1-yloxy)hexyl)oxy)tetrahydro-2H-pyran-2-carboxylic acid]: the Kd (in test [1]; in test [2]; at cynomolgus Siglec-2/CD22) was under 1000 nM throughout.

Consider `C#CCOc1ccc(CO[C@]2(C(=O)O)C[C@H](O)[C@@H](NC(=O)CO)[C@H]([C@H](O)[C@H](O)CNC(=O)Cc3ccc(-c4ccc(O)cc4)cc3OC)O2)cc1` [Compound 51, (2R,4S,5R,6R)-6-((1R,2R)-1,2-dihydroxy-3-(2-(4′-hydroxy-3-methoxy-[1,1′-biphenyl]-4-yl)acetamido)propyl)-4-hydroxy-5-(2-hydroxyacetamido)-2-((4-(prop-2-yn-1-yloxy)benzyl)oxy)tetrahydro-2H-pyran-2-carboxylic acid], for which the Kd in test [1] was under 1000 nM; in test [2], under 1000 nM; at cynomolgus Siglec-2/CD22 it was 1000 to 10000 nM.

As for `C#CCOCCOCCO[C@]1(C(=O)O)C[C@H](O)[C@@H](NC(=O)CO)[C@H]([C@H](O)[C@H](O)CNC(=O)C[C@H]2CC[C@@H](O)CC2)O1` [Compound 200, (2R,4S,5R,6R)-6-((1R,2R)-1,2-dihydroxy-3-(2-((1s,4S)-4-hydroxycyclohexyl)acetamido)propyl)-4-hydroxy-5-(2-hydroxyacetamido)-2-(2-(2-(prop-2-yn-1-yloxy)ethoxy)ethoxy)tetrahydro-2H-pyran-2-carboxylic acid], the Kd (in test [1]; in test [2]; on cynomolgus Siglec-2/CD22) was over 10000 nM in each case.

In the case of `C#CCCOc1ccc(CS[C@]2(C(=O)O)C[C@H](O)[C@@H](NC(=O)CO)[C@H]([C@H](O)[C@H](O)CNC(=O)Cc3cccc(Cl)c3)O2)cc1` [Compound 120, (2S,4S,5R,6R)-2-((4-(but-3-yn-1-yloxy)benzyl)thio)-6-((1R,2R)-3-(2-(3-chlorophenyl)acetamido)-1,2-dihydroxypropyl)-4-hydroxy-5-(2-hydroxyacetamido)tetrahydro-2H-pyran-2-carboxylic acid], the Kd in test [1] is 1000 to 10000 nM; in test [2], under 1000 nM; at cynomolgus Siglec-2/CD22, under 1000 nM.

Regarding `C#CCOCCOCCO[C@]1(C(=O)O)C[C@H](O)[C@@H](NC(=O)CO)[C@H]([C@H](O)[C@H](O)CNC(=O)C[C@H]2CC[C@H](O)CC2)O1` [Compound 14, (2R,4S,5R,6R)-6-((1R,2R)-1,2-dihydroxy-3-(2-((1r,4R)-4-hydroxycyclohexyl)acetamido)propyl)-4-hydroxy-5-(2-hydroxyacetamido)-2-(2-(2-(prop-2-yn-1-yloxy)ethoxy)ethoxy)tetrahydro-2H-pyran-2-carboxylic acid], the Kd in test [1] is 1000 to 10000 nM; in test [2], over 10000 nM; on cynomolgus Siglec-2/CD22, over 10000 nM.

Take `C#CCOCCOCCO[C@]1(C(=O)O)C[C@H](O)[C@@H](NC(=O)CO)[C@H]([C@H](O)[C@H](O)CNC(=O)Cc2ccc(-c3cccc(C(=O)NC)c3)cc2)O1` [Compound 80, (2R,4S,5R,6R)-6-((1R,2R)-1,2-dihydroxy-3-(2-(3′-(methylcarbamoyl)-[1,1′-biphenyl]-4-yl)acetamido)propyl)-4-hydroxy-5-(2-hydroxyacetamido)-2-(2-(2-(prop-2-yn-1-yloxy)ethoxy)ethoxy)tetrahydro-2H-pyran-2-carboxylic acid]: the Kd (in test [1]; in test [2]; at cynomolgus Siglec-2/CD22) was 1000 to 10000 nM each time.

As to `C#CCOCCOCCO[C@]1(C(=O)O)C[C@H](O)[C@@H](NC(=O)CO)[C@H]([C@H](O)[C@H](O)CNC(=O)Cc2ccc(C)cc2)O1` [Compound 175, (2R,4S,5R,6R)-6-((1R,2R)-1,2-dihydroxy-3-(2-(p-tolyl)acetamido)propyl)-4-hydroxy-5-(2-hydroxyacetamido)-2-(2-(2-(prop-2-yn-1-yloxy)ethoxy)ethoxy)tetrahydro-2H-pyran-2-carboxylic acid], the Kd (in test [1]; in test [2]; at cynomolgus Siglec-2/CD22) was 1000 to 10000 nM in each case.

Turning to `C#CCOCCOCCO[C@]1(C(=O)O)C[C@H](O)[C@@H](NC(=O)CO)[C@H]([C@H](O)[C@H](O)CNC(=O)Cc2cccc(O)c2)O1` [Compound 152, (2R,4S,5R,6R)-6-((1R,2R)-1,2-dihydroxy-3-(2-(3-hydroxyphenyl)acetamido)propyl)-4-hydroxy-5-(2-hydroxyacetamido)-2-(2-(2-(prop-2-yn-1-yloxy)ethoxy)ethoxy)tetrahydro-2H-pyran-2-carboxylic acid], the Kd in test [1] is under 1000 nM; in test [2] it was 1000 to 10000 nM; on cynomolgus Siglec-2/CD22, 1000 to 10000 nM.

`C#CCOCCOCCO[C@]1(C(=O)O)C[C@H](O)[C@@H](NC(=O)NC)[C@H]([C@H](O)[C@H](O)CNC(=O)Cc2ccc(-c3ccc(O)cc3)cc2)O1` [Compound 70, (2R,4S,5R,6R)-6-((1R,2R)-1,2-dihydroxy-3-(2-(4′-hydroxy-[1,1′-biphenyl]-4-yl)acetamido)propyl)-4-hydroxy-5-(3-methylureido)-2-(2-(2-(prop-2-yn-1-yloxy)ethoxy)ethoxy)tetrahydro-2H-pyran-2-carboxylic acid]: the Kd in test [1] is 1000 to 10000 nM; in test [2], under 1000 nM; on cynomolgus Siglec-2/CD22, 1000 to 10000 nM.
